In patent publication US9409905B2, “Antibacterial compounds and methods for use” (PTC THERAPEUTICS, INC., priority 2011, dated 2016):
Converted amounts (≈) assume the structure as drawn.

Key:
E. coli LZ3111 = assay: Antibacterial activity, MIC, quinolone resistant strain (Table 2); assay type: cell-based; settings: Escherichia coli, LZ3111, read-out: MIC LZ3111
Method in brief: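 Growth inhibition assessed by serial drug dilution in broth; endpoint was absence of macroscopically visible growth, reported as MIC, μg/mL.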

[1] = tested on: Pseudomonas aeruginosa (P. aeruginosa) 27853; assay: Antibacterial activity, MIC (Table 5); assay type: cell-based; settings: P. aeruginosa 27853, read-out: MIC, 27853
Method in brief: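 Using a microbroth dilution format, the minimum inhibitory concentration was recorded as the lowest tested concentration that stopped visible bacterial growth, expressed in μg/mL.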

A. baumannii MXX2240 = assay: Antibacterial activity, MIC, resistant strain (Table 4); assay type: cell-based; settings: Acinetobacter baumannii, MXX2240; resistant A. baumannii MMX2240, multi-drug resistant clinical isolate; read-out: MIC, MMX2240
Method in brief: (§1)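 MIC in μg/mL by microbroth dilution, scored as the lowest level that suppresses visible growth.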

K. pneumoniae MXX1232 = assay: as above; assay type: cell-based; settings: Klebsiella pneumoniae, MXX1232; resistant K. pneumoniae MMX1232, multi-drug resistant clinical isolate; read-out: MIC, MMX1232
Method in brief: as §1

[2] = tested on: Escherichia coli (E. coli) BAS849; assay: Antibacterial activity, microbroth dilution MIC (Table 1); assay type: cell-based; settings: microbroth dilution, super sensitive Gram-negative E. coli BAS849, read-out: MIC, BAS849
Method in brief: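 Using broth microdilution, MIC endpoints (μg/mL) mark where visible growth no longer appears; the panel spans sensitive and control Gram-negative strains plus a Gram-positive strain.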

[3] = tested on: Staphylococcus aureus (S. aureus) 29213; assay: as above; assay type: cell-based; settings: microbroth dilution, Gram-positive S. aureus 29213, read-out: MIC, 29213
Method in brief: (§2)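 Broth microdilution; endpoint = no macroscopic growth; value = lowest inhibiting concn, μg/mL.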

E. coli ELZ4000 = assay: Antibacterial activity, MIC, multi-drug resistant clinical isolate (Table 3); assay type: cell-based; settings: Escherichia coli, ELZ4000, read-out: MIC ELZ4000
Method in brief: (§3)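 Values derive from a microbroth dilution method, taking as MIC (μg/mL) the lowest tested concentration without macroscopically visible growth.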

E. coli ELZ4251 = assay: as above; assay type: cell-based; settings: Escherichia coli
Method in brief: as §3

E. coli 25922 = assay: Antibacterial activity, microbroth dilution MIC (Table 1); assay type: cell-based, Escherichia coli; settings: Escherichia coli; microbroth dilution; control Gram-negative E. coli 25922 strain; read-out: MIC, 25922
Method in brief: as §2

[4] = tested on: Klebsiella pneumoniae (K. pneumoniae) 35657; assay: Antibacterial activity, MIC (Table 4); assay type: cell-based; settings: K. pneumoniae 35657, read-out: MIC, 35657
Method in brief: as §1

[5] = tested on: Acinetobacter baumannii (A. baumannii) BAA747; assay: Antibacterial activity, MIC (Table 4); assay type: cell-based; settings: A. baumannii BAA747, read-out: MIC, BAA747
Method in brief: as §1

[6] = tested on: Neisseria meningitidis (N. meningitidis) 13090; assay: Antibacterial activity, MIC (Table 8); assay type: cell-based
Text: (§4) The antibacterial activity from a microbroth dilution method may be presented as the minimum inhibitory concentration (MIC in μg/mL). The MIC value is the lowest concentration of drug which prevents macroscopically visible growth under test conditions.
(§5) Antibacterial activity of test compounds against the Gram-negative bacteria Haemophilus influenzae (H. influenzae) 49247 is shown in Table 6, Moraxella catarrhalis (M. catarrhalis) 25238 is shown in Table 7 and Neisseria meningitidis (N. meningitidis) 13090 is shown in Table 8.

[7] = tested on: Haemophilus influenzae (H. influenzae) 49247; assay: Antibacterial activity, MIC (Table 6); assay type: cell-based
Text: as §4, §5

[8] = tested on: Moraxella catarrhalis (M. catarrhalis) 25238; assay: Antibacterial activity, MIC (Table 7); assay type: cell-based
Text: as §4, §5

Compound | MIC (E. coli LZ3111) [µg/mL] | MIC [1] [µg/mL] | MIC (A. baumannii MXX2240) [µg/mL] | MIC (K. pneumoniae MXX1232) [µg/mL] | MIC [2] [µg/mL] | MIC [3] [µg/mL] | MIC (E. coli ELZ4000) [µg/mL] | MIC (E. coli ELZ4251) [µg/mL] | MIC (E. coli 25922) [µg/mL] | MIC [4] [µg/mL] | MIC [5] [µg/mL] | MIC [6] [µg/mL] | MIC [7] [µg/mL] | MIC [8] [µg/mL]
CCc1cc(C(=O)O)c(=O)[nH]c1-c1ccc2c(ccn2C)c1 [Cpd 21, 5-ethyl-6-(1-methyl-1H-indol-5-yl)-2-oxo-1,2-dihydropyridine-3-carboxylic acid] | 12.5 to 150 (≈ 42.2 to 506 µM) | 12.5 to 150 (≈ 42.2 to 506 µM) | 12.5 to 150 (≈ 42.2 to 506 µM) | 12.5 to 150 (≈ 42.2 to 506 µM) | < 1 | 3.5 to 12.5 (≈ 11.8 to 42.2 µM) | 12.5 to 150 (≈ 42.2 to 506 µM) | 12.5 to 150 (≈ 42.2 to 506 µM) | < 1 | < 1 | < 1 | < 1 | < 1 | –
CCc1c(-c2ccc3c(ccn3C)c2)[nH]c(=O)c(C(=O)O)c1O [Cpd 22, 5-ethyl-4-hydroxy-6-(1-methyl-1H-indol-5-yl)-2-oxo-1,2-dihydropyridine-3-carboxylic acid] | 1 to 3.5 (≈ 3.2 to 11.2 µM) | 12.5 to 150 (≈ 40 to 480 µM) | < 1 | 12.5 to 150 (≈ 40 to 480 µM) | < 1 | 1 to 3.5 (≈ 3.2 to 11.2 µM) | 3.5 to 12.5 (≈ 11.2 to 40 µM) | 3.5 to 12.5 (≈ 11.2 to 40 µM) | < 1 | 1 to 3.5 (≈ 3.2 to 11.2 µM) | < 1 | < 1 | < 1 | < 1
CCc1c(-c2cnc3c(ccn3C)c2)[nH]c(=O)c(C(=O)O)c1O [Cpd 32, 5-ethyl-4-hydroxy-6-(1-methyl-1H-pyrrolo[2,3-b]pyridin-5-yl)-2-oxo-1,2-dihydropyridine-3-carboxylic acid] | 1 to 3.5 (≈ 3.19 to 11.2 µM) | 12.5 to 150 (≈ 39.9 to 479 µM) | < 1 | 12.5 to 150 (≈ 39.9 to 479 µM) | < 1 | 3.5 to 12.5 (≈ 11.2 to 39.9 µM) | 1 to 3.5 (≈ 3.19 to 11.2 µM) | < 1 | 12.5 to 150 (≈ 39.9 to 479 µM) | 12.5 to 150 (≈ 39.9 to 479 µM) | 12.5 to 150 (≈ 39.9 to 479 µM) | < 1 | 1 to 3.5 (≈ 3.19 to 11.2 µM) | 1 to 3.5 (≈ 3.19 to 11.2 µM)
Cn1ccc2cc(-c3[nH]c(=O)c(C(=O)O)c(O)c3C3CC3)ccc21 [Cpd 36, 5-cyclopropyl-4-hydroxy-6-(1-methyl-1H-indol-5-yl)-2-oxo-1,2-dihydropyridine-3-carboxylic acid] | 3.5 to 12.5 (≈ 10.8 to 38.5 µM) | 12.5 to 150 (≈ 38.5 to 462 µM) | 1 to 3.5 (≈ 3.08 to 10.8 µM) | 12.5 to 150 (≈ 38.5 to 462 µM) | 1 to 3.5 (≈ 3.08 to 10.8 µM) | 3.5 to 12.5 (≈ 10.8 to 38.5 µM) | 3.5 to 12.5 (≈ 10.8 to 38.5 µM) | 1 to 3.5 (≈ 3.08 to 10.8 µM) | 12.5 to 150 (≈ 38.5 to 462 µM) | 12.5 to 150 (≈ 38.5 to 462 µM) | 12.5 to 150 (≈ 38.5 to 462 µM) | < 1 | 3.5 to 12.5 (≈ 10.8 to 38.5 µM) | 1 to 3.5 (≈ 3.08 to 10.8 µM)
CCc1cc(C(=O)O)c(=O)[nH]c1-c1ccc2c(cnn2C)c1 [Cpd 41, 5-ethyl-6-(1-methyl-1H-indazol-5-yl)-2-oxo-1,2-dihydropyridine-3-carboxylic acid] | 12.5 to 150 (≈ 42 to 505 µM) | 12.5 to 150 (≈ 42 to 505 µM) | 12.5 to 150 (≈ 42 to 505 µM) | 12.5 to 150 (≈ 42 to 505 µM) | < 1 | 12.5 to 150 (≈ 42 to 505 µM) | 12.5 to 150 (≈ 42 to 505 µM) | 12.5 to 150 (≈ 42 to 505 µM) | 3.5 to 12.5 (≈ 11.8 to 42 µM) | 12.5 to 150 (≈ 42 to 505 µM) | 12.5 to 150 (≈ 42 to 505 µM) | < 1 | < 1 | –
CCc1c(-c2ccc3c(cnn3C)c2)[nH]c(=O)c(C(=O)O)c1O [Cpd 42, 5-ethyl-4-hydroxy-6-(1-methyl-1H-indazol-5-yl)-2-oxo-1,2-dihydropyridine-3-carboxylic acid] | 1 to 3.5 (≈ 3.19 to 11.2 µM) | 12.5 to 150 (≈ 39.9 to 479 µM) | 3.5 to 12.5 (≈ 11.2 to 39.9 µM) | 12.5 to 150 (≈ 39.9 to 479 µM) | < 1 | 12.5 to 150 (≈ 39.9 to 479 µM) | 3.5 to 12.5 (≈ 11.2 to 39.9 µM) | 3.5 to 12.5 (≈ 11.2 to 39.9 µM) | 3.5 to 12.5 (≈ 11.2 to 39.9 µM) | 3.5 to 12.5 (≈ 11.2 to 39.9 µM) | 1 to 3.5 (≈ 3.19 to 11.2 µM) | < 1 | < 1 | < 1
